In patent US8383814B2, “Substituted tetrahydropyran spiro pyrrolidinone and piperidinone, preparation and therapeutic use thereof” (Sanofi, priority 2008, dated 2013):

Legend:
rhesus H3 receptor = test: GTPγS radioligand binding assay: inhibition of rhesus H3 constitutive functional activity in cell membranes (inverse agonism); assay type: biochemical, rhesus monkey (Macacca Mulatta); set-up: concentration or dose not given beside the values; conditions: negative value = below basal level
Method: (§1) Rhesus H3 membranes were prepared from the Flp-In T-REx 293 Cell Line (Invitrogen) stably transfected with pcDNA5/FRT/TO (Invitrogen) containing the rhesus monkey (Macacca Mulatta) 445 amino acid H3 receptor. (Genbank #AY231164). Stably transfected cultures were amplified in tissue culture flasks by standard tissue culture methods and induced to express rhesus H3 by exposure to 500 ng/ml tetracycline (Cellgro) for 24 hours. After induction, cells were dissociated from flasks utilizing Cell Stripper (Cellgro). Cells were centrifuged (1K×g, 5 min) and pellet frozen in an ethanol-dry ice bath to disrupt cell membranes. Frozen cell pellet was re-suspended in 5 mM HEPES (pH 7.4, Invitrogen) at 10 ml/1000 cm2 of harvested cells. The cell suspension was drawn through an 18 gauge needle (2-3×) followed by a 23 gauge needle (2-3×) to further disrupt cell membranes. The cell suspension was centrifuged (40K×g, 30 min). Cell membrane pellet was re-suspended in 5 mM HEPES (pH 7.4, Invitrogen) at a final protein concentration of 10 mg/ml. Rhesus H3 membranes were stored under liquid nitrogen prior to use in [3H]-Methylhistamine and GTP S radioligand binding assays.

[1] = target: T1, rhesus (Macacca Mulatta) H3 receptor (Macaca mulatta, UniProt Q865E1); test: Rhesus H3 radioligand binding assay ([3H]-methylhistamine displacement, WGA SPA beads); set-up: species or system rhesus monkey (Macacca Mulatta); conditions: [3H]-methylhistamine 2 nM; membranes of Flp-In T-REx 293 cells expressing rhesus H3; Cheng-Prusoff
T1 construct: pcDNA5/FRT/TO (Invitrogen) containing the rhesus monkey (Macacca Mulatta) 445 amino acid H3 receptor
Method: as §1
Rhesus H3 radioligand binding assay was performed using rhesus H3 receptor membranes (prepared as described above), [3H]-Methylhistamine (Perkin Elmer) and WGA SPA beads (wheat germ agglutinin scintillation proximity assay) beads (Amersham). The assay was performed in 96-well Opti-Plates (Packard). Each reaction contained 50 μl rhesus H3 membranes (20-30 μg total protein), 50 μl WGA SPA beads (0.1 μg) and 50 μl of 83 Ci/mmol [^3H]-Methylhistamine (final concentration 2 nM) and 50 μl of tested compound. The compounds of this invention and/or vehicle were diluted with binding buffer from 10 mM DMSO stocks. Assay plates were sealed with TopSeal (Perkin Elmer) and mixed on shaker (25° C., 1 hour). Assay plates were read on TopCount scintillation counter (Packard). Results were analyzed by Hill transformation and Ki values were determined by Cheng-Prusoff equation.

T1 sequence (Q865E1 1-445): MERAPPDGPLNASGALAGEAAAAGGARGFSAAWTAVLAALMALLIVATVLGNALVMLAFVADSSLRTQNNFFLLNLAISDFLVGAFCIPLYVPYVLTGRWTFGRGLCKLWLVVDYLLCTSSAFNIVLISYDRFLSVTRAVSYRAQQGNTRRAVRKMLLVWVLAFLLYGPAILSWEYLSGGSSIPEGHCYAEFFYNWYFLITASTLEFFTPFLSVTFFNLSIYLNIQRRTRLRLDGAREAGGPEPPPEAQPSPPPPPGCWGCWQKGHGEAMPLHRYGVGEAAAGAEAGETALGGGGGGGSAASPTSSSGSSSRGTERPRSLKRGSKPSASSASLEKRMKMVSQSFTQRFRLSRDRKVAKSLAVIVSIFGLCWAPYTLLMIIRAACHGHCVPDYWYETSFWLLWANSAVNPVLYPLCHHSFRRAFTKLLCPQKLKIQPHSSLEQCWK

SMILES | Ki [1] [nM] | Inverse Agonism: % inhibition of Basal GTPγS binding in Rhesus H3 (rhesus H3 receptor) [%]
Cc1cc(N2CC[C@H](N3CCC[C@@H]3C)C2)ccc1N1CCC2(CCOCC2)C1=O [Example 1, 2-[2-Methyl-4-((2S,3′S)-2-methyl-[1,3′]bipyrrolidinyl-1′-yl)-phenyl]-8-oxa-2-aza-spiro[4.5]decan-1-one] | 0.93 | −25
Cc1cc(N2CC[C@H](N3CCC[C@@H]3C)C2)ccc1N1CCCC2(CCOCC2)C1=O [Example 2, 2-[2-Methyl-4-((2S,3′S)-2-methyl-[1,3′]bipyrrolidinyl-1′-yl)-phenyl]-9-oxa-2-aza-spiro[5.5]undecan-1-one] | 0.38 | −9
C[C@H]1CCCN1[C@H]1CCN(c2ccc(N3CCC4(CCOCC4)C3=O)cc2)C1 [Example 3, 2-[4-((2S,3′S)-2-Methyl-[1,3′]bipyrrolidinyl-1′-yl)-phenyl]-8-oxa-2-aza-spiro[4.5]decan-1-one] | 0.63 | −26
C[C@H]1CCCN1[C@H]1CCN(c2ccc(N3CCC4(CCOCC4)C3=O)cc2F)C1 [Example 4, 2-[3-Fluoro-4-((2S,3′S)-2-methyl-[1,3′]bipyrrolidinyl-1′-yl)-phenyl]-8-oxa-2-aza-spiro[4.5]decan-1-one] | 2.1 | −31
Cc1cc(N2CCC(N3CCC[C@@H]3C)CC2)ccc1N1CCC2(CCOCC2)C1=O [Example 5, 2-{2-Methyl-4-[4-((2S,3′S)-2-methyl-pyrrolidin-1-yl)-piperidin-1-yl]-phenyl}-8-oxa-2-aza-spiro[4.5]decan-1-one] | 0.7 | −11
Cc1cc(N2CC[C@H](N3CCC[C@H]3C)C2)ccc1N1CCC2(CCOCC2)C1=O [Example 6] | 38 | −36
CCC1CCCN1C1CCN(c2ccc(N3CCC4(CCOCC4)C3=O)c(F)c2)C1 (centres unmarked) [Example 7, 2-[4-(2-Ethyl-[1,3′]bipyrrolidinyl-1′-yl)-2-fluoro-phenyl]-8-oxa-2-aza-spiro[4.5]decan-1-one] | 5.2 | −35
CC(C)C1CCCN1C1CCN(c2ccc(N3CCC4(CCOCC4)C3=O)c(F)c2)C1 (centres unmarked) [Example 8, 2-[2-Fluoro-4-(2-isopropyl-[1,3′]bipyrrolidinyl-1′-yl)-phenyl]-8-oxa-2-aza-spiro[4.5]decan-1-one] | 76 | −22
CCCC1CCCN1C1CCN(c2ccc(N3CCC4(CCOCC4)C3=O)c(F)c2)C1 (centres unmarked) [Example 9, 2-[2-Fluoro-4-(2-propyl-[1,3′]bipyrrolidinyl-1′-yl)-phenyl]-8-oxa-2-aza-spiro[4.5]decan-1-one] | 170 | −30
C[C@H]1CCCN1C1CCN(c2ccc(N3CCC4(CCOCC4)C3=O)c(F)c2)CC1 [Example 10, 2-{2-Fluoro-4-[4-((2S,3′S)-2-methyl-pyrrolidin-1-yl)piperidin-1-yl]-phenyl}-8-oxa-2-aza-spiro[4.5]decan-1-one] | 0.16 | −33
C[C@H]1CCCN1[C@H]1CCN(c2ccc(N3CCC4(CCOCC4)C3=O)c(F)c2)C1 [Example 11, 2-[2-Fluoro-4-((2S,3′S)-2-methyl-[1,3′]bipyrrolidinyl-1′-yl)-phenyl]-8-oxa-2-aza-spiro[4.5]decan-1-one] | 0.45 | −11
C[C@H]1CCCCN1C1CCN(c2ccc(N3CCC4(CCOCC4)C3=O)c(F)c2)CC1 [Example 12, 2-[2-Fluoro-4-((2S,3′S)-2-methyl-[1,4]bipiperidinyl-1′-yl)-phenyl]-8-oxa-2-aza-spiro[4.5]decan-1-one] | 0.45 | −22
CC(C)C1CCCN1C1CCN(c2ccc(N3CCC4(CCOCC4)C3=O)cc2)CC1 (centres unmarked) [Example 13, 2-{4-[4-(2-Isopropyl-pyrrolidin-1-yl)-piperidin-1-yl]-phenyl}-8-oxa-2-aza-spiro[4.5]decan-1-one] | 16 | −22

The next lines start with results.

Ki [1] [nM] | SMILES | Inverse Agonism: % inhibition of Basal GTPγS binding in Rhesus H3 (rhesus H3 receptor) [%]
13 | CCCC1CCCN1C1CCN(c2ccc(N3CCC4(CCOCC4)C3=O)cc2)CC1 (centres unmarked) [Example 14, 2-{4-[4-(2-Propyl-pyrrolidin-1-yl)-piperidin-1-yl]-phenyl}-8-oxa-2-aza-spiro[4.5]decan-1-one] | −33
190 | COCC1CCCN1C1CCN(c2ccc(N3CCC4(CCOCC4)C3=O)cc2)C1 (centres unmarked) [Example 15, 2-[4-(2-Methoxymethyl-[1,3′]bipyrrolidinyl-1′-yl)-phenyl]-8-oxa-2-aza-spiro[4.5]decan-1-one] | −26
0.52 | C[C@H]1CCCN1C1CCN(c2ccc(N3CCC4(CCOCC4)C3=O)cc2)CC1 [Example 16, 2-{4-[4-((2S,3′S)-2-Methyl-pyrrolidin-1-yl)-piperidin-1-yl]-phenyl}-8-oxa-2-aza-spiro[4.5]decan-1-one] | −29
2.5 | C[C@H]1CCCN1[C@H]1CCN(c2ccc(N3CCCC4(CCOCC4)C3=O)cc2F)C1 [Example 17, 2-[3-Fluoro-4-(2-methyl-[1,3′]bipyrrolidinyl-1′-yl)-phenyl]-9-oxa-2-aza-spiro[5.5]undecan-1-one] | −16
4.3 | CCC1CCCN1C1CCN(c2ccc(N3CCC4(CCOCC4)C3=O)c(C(F)(F)F)c2)CC1 (centres unmarked) [Example 18, 2-{4-[4-(2-Ethyl-pyrrolidin-1-yl)-piperidin-1-yl]-2-trifluoromethyl-phenyl}-8-oxa-2-aza-spiro[4.5]decan-1-one] | −35
100 | CC(C)C1CCCN1C1CCN(c2ccc(N3CCC4(CCOCC4)C3=O)c(C(F)(F)F)c2)CC1 (centres unmarked) [Example 19, 2-{4-[4-(2-Isopropyl-pyrrolidin-1-yl)-piperidin-1-yl]-2-trifluoromethyl-phenyl}-8-oxa-2-aza-spiro[4.5]decan-1-one] | −8
650 | CCCC1CCCN1C1CCN(c2ccc(N3CCC4(CCOCC4)C3=O)c(C(F)(F)F)c2)C1 (centres unmarked) [Example 20, 2-[4-(2-Propyl-[1,3′]bipyrrolidinyl-1′-yl)-2-trifluoromethyl-phenyl]-8-oxa-2-aza-spiro[4.5]decan-1-one] | −12
0.42 | C[C@H]1CCCN1C1CCN(c2ccc(N3CCC4(CCOCC4)C3=O)c(C(F)(F)F)c2)CC1 [Example 21, 2-{4-[4-((2S,3′S)-2-Methyl-pyrrolidin-1-yl)-piperidin-1-yl]-2-trifluoromethyl-phenyl}-8-oxa-2-aza-spiro[4.5]decan-1-one] | −19
8.6 | C[C@H]1CCCN1[C@H]1CCN(c2ccc(N3CCC4(CCOCC4)C3=O)c(C(F)(F)F)c2)C1 [Example 22, 2-[4-((2S,3′S)-2-Methyl-[1,3′]bipyrrolidinyl-1′-yl)-2-trifluoromethyl-phenyl]-8-oxa-2-aza-spiro[4.5]decan-1-one] | −21
1.5 | C[C@H]1CCCCN1C1CCN(c2ccc(N3CCC4(CCOCC4)C3=O)c(C(F)(F)F)c2)CC1 [Example 23, 2-[4-((2S,3′S)-2-Methyl-[1,4]bipiperidinyl-1′-yl)-2-trifluoromethyl-phenyl]-8-oxa-2-aza-spiro[4.5]decan-1-one] | −29
18 | CCCC1CCCN1C1CCN(c2ccc(N3CCC4(CCOCC4)C3=O)c(CC)c2)CC1 (centres unmarked) [Example 24, 2-{2-Ethyl-4-[4-(2-propyl-pyrrolidin-1-yl)-piperidin-1-yl]-phenyl}-8-oxa-2-aza-spiro[4.5]decan-1-one] | −18
4.9 | CCc1cc(N2CCC(N3CCCC3COC)CC2)ccc1N1CCC2(CCOCC2)C1=O (centres unmarked) [Example 25, 2-{2-Ethyl-4-[4-(2-methoxymethyl-pyrrolidin-1-yl)piperidin-1-yl]-phenyl}-8-oxa-2-aza-spiro[4.5]decan-1-one] | −13
0.13 | CCc1cc(N2CCC(N3CCC[C@@H]3C)C2)ccc1N1CCC2(CCOCC2)C1=O (some centres unmarked) [Example 26] | –
0.7 | C[C@H]1CCCN1[C@H]1CCN(c2ccc(N3CCCC4(CCOCC4)C3=O)c(F)c2)C1 [Example 27, 2-[2-Fluoro-4-((2S,3′S)-2-methyl-[1,3′]bipyrrolidinyl-1′-yl)-phenyl]-9-oxa-2-aza-spiro[5.5]undecan-1-one] | −20
